According to patent US20140079785A1, “COMPOSITION COMPRISING LIPID NANOPARTICLES AND A CORTICOSTEROID OR VITAMIN D DERIVATIVE” (priority 2011, published 2014):

What was measured:
[1] = tested on: IL-1β, IL-4, IL-8, IL-10 and IL-12; assay: Cytokine level in ear tissue (MSD mouse TH1/TH2 9-plex); type: in vivo, mice; conditions: upon treatment with BMV
Method: The remaining ear tissue from the 8 mm biopsy was cut into two halves, one of which was tape stripped before analysing the drug concentration and the other was used for cytokine analysis. Both were snap-frozen in liquid nitrogen and stored at −80° C. until the analysis was carried out.
The ear tissue was homogenized in 200 μl lysis buffer using a Precellys® 24 tissue homogenizer with a Cryolys cooling unit from Bertin Technologies (Montigny-le-Bretonneux, France). The lysis buffer was composed of 1 mM Na3VO4, 0.4% (v/v) nonyl phenoxypolyethoxylethanol (NP40) and the protease inhibitor Complete™ from Roche Diagnostics (Mannheim, Germany) dissolved in PBS. […] The supernatant was kept at −80° C. until the MSD® cytokine assay was performed. A determination of the total protein concentration was performed to normalize the sample concentration before the cytokine determination. […] Specific level of the cytokines IFN-γ, IL-1-β, IL-2, IL-4, IL-5, IL-8, IL-10, IL-12 total and TNF-α in the ear tissue were determined with a MSD® mouse TH1/TH2 9-plex Multi-Spot® 96-well 10 spot plate using a MSD® Sector Imager 6000 (Meso Scale Discovery, Gaithersburg, Md., USA). The MSD® assay was optimized for tissue use. […] Washing was repeated 3 times with 0.05% (v/v) polysorbate 20 before finally adding 150 μl read buffer diluted 1:2 in MilliQ water and reading the plate on the MSD® Sector Imager 6000.

[2] = In vitro skin penetration and permeation of 3H BMV, Franz type diffusion cells; type: in vitro ADME, porcine; conditions: barrier-impaired versus intact skin, applied in SLN
Method: The porcine ears were obtained from newly slaughtered pigs from the Danish Meat Trade College (Roskilde, Denmark). The ears were stored at −20° C. and thawed slowly at 4° C. before shaving and removing full-thickness skin from the back of the ears using a scalpel. Subcutaneous tissue was carefully removed with a scalpel and the skin was cut into appropriate pieces before freezing at −20° C. until use (after no more than 14 days). Two skin pieces were obtained from each ear, and they were balanced with respect to intact and barrier-impaired skin.
Skin barrier impairment was induced by 25 successive tape strippings applying D-Squame® tape discs (Cuderm Corp., Dallas, USA). 225 g/cm^2 pressure on the tape was applied with a D-Squame® tape applicator for 5 sec. (Cuderm Corp., Dallas, USA). […]
Penetration profiles of BMV and lipid were evaluated. ^3H-labelled BMV and ^14C-labelled lipid were used to study the penetration of BMV and lipid particles (distearate and tripalmitate) into intact and barrier-impaired skin.
The skin was mounted on Franz type diffusion cells with the dermis side facing the receptor medium (diffusion area 3.14 cm^2, recipient volume 10 ml, constant stirring, temperature kept at 32° C.). […] The exact amount of formulation applied was determined by weighing the spatula before and after application. After complete incubation, the skin was separated and analyzed. […]

For CCCCC(=O)O[C@]1(C(=O)CO)[C@@H](C)C[C@H]2[C@@H]3CCC4=CC(=O)C=C[C@]4(C)[C@@]3(F)[C@@H](O)C[C@@]21C [BMV, Betamethasone-17-Valerate], the “concentration of IL-5 and TNF-α” value [1] was “below the detection limit” and the “increase in BMV penetration” value [2] was 3-60 fold.
